# Read-outs that look alike come from different tables or passages of the source.
# Experiments:
# porcine scleral tissue = assay: scleral tissue cross-linking of cut porcine scleral pieces, shift in Tm by DSC
# Procedure: Equatorial scleral strips approximately 6 mm×40 mm in size were obtained from multiple eyes. These strips were submerged in DPBS solution containing 1 mM EDTA to inactivate native collagenases and to prevent tissue dehydration during sample preparation. Each strip was further cut into smaller 4 mm×3 mm pieces. The scleral pieces were individually transferred to a 24 well plate and were incubated in 1 ml of cross-linking solution in 0.1M NaHCO3 buffer at either pH 8.5 or 7.4 for 30 mins at 25° C. without refreshing the solution. […] Negative controls were treated identically with vehicle. Post-treatment, all solutions were aspirated and samples were washed twice using DPBS to remove remnant cross-linking solution before being analyzed by DSC. A minimum of three independent determinations were carried out for each condition using scleral pieces originating from different porcine globes.
# (§1) Thermal denaturation temperature (Tm) of all samples was measured using a Perkin-Elmer DSC 6000 Autosampler (Waltham, Mass.). Tissue samples were carefully blotted in a standardized, repetitive manner to remove excess solution/DPBS and transferred to pre-weighed 50 ul aluminum pans. The pans were immediately hermetically sealed using a DSC pan sealing press, which is used to prevent tissue dehydration due to evaporative losses. DSC scans were run using Pyris software (version 11.0) from 40° C. to 75° C. at a rate of 1° C./min and denaturation curves representing differential heat flow over time were recorded. DSC heat flow endotherm data was analyzed using the Pyris data analysis peak search function using a calculation limit of ±0.3° C. from the apparent thermal denaturation peak.
# Conversely, scleral samples were subjected to non-paired t-tests assuming equal variance of data. […] All ΔTm values are reported in the form of mean value followed by standard error.
# [1] = cross-linking (gel formation) with polyallylamine (PAA) hydrogel model system; conditions: with PAA at 37° C. and pH 7.4 phosphate buffered solution
# From the text: Shown in Table 1 below are the results from a parallel study using a hydrogel functionalized amine cross-linking system (polyallylamine, or “PAA”) previously published for reactions using nitroalcohols (NAs). Li et al., “Mechanistic and catalytic studies of β-nitroalcohol crosslinking with polyamine,” J Appl Polym Sci. 2013; 128:3696-3701. The Table summarizes the results obtained in comparison studies using three of the higher order nitroalcohols previously reported (the nitrotriol HNPD, the nitrodiol MNPD, and the brominated nitrodiol known as Bronopol). The cross-linking efficacy of these nitroalcohol compounds were compared to two of the instantly disclosed formaldehyde releasing agents (diazolidinyl urea (DAU) and imidazolidinyl urea (IMU)). The time to gel formation indicates cross-linking efficacy in this system.
# Salmonella = conditions: Ames, micronucleus and other assays as per footnotes; cited from earlier work
# rat = conditions: cited from earlier work
# [2] = tested on: intact cadaveric rabbit cornea; assay: ex vivo rabbit corneal cross-linking simulation setup, shift in thermal denaturation temperature (Tm) by DSC; conditions: for cross-linking efficacy compared with nitroalcohol NP (250 mM, 60 minutes): FIG. 2, half of maximum allowed concentration (DAU 9 mM, SHMG 18.5 mM, DMDM 16 mM), 30 minutes; for ΔTm (shift in denaturation temperature of corneal tissue): Second Experimental Details, 30 mins, mean ± standard error
# Procedure: 0.5% proparacaine was applied prior to the cross-linking solution. A cross-linking solution containing the formaldehyde releasing agent was then administered via a corneal reservoir for 30 minutes in 0.1M NaHCO3 at either pH 7.4 or 8.5. The epithelium was left intact. The control contralateral eye was treated identically with vehicle.
# Effectiveness of cross-linking was based on shifts in thermal denaturation temperature (Tm) as measured by differential scanning calorimetry (DSC) (Perkin-Elmer DSC 6000).
# Intact cadaveric rabbit heads with clear corneas were obtained fresh (within an hour of sacrifice) in adherence with the ARVO Statement For the Use of Animals in Ophthalmic and Vision Research. FAR solutions at concentrations equivalent to half the maximum allowed value (½ max) were administered in a manner designed to simulate therapeutic cross-linking in patients. For all of the corneal experiments (with the notable exception of CXL), the corneal epithelium was left intact. An 8 mm Hessburg-Barron corneal reservoir was affixed to the corneal surface using the supplied syringe vacuum. A single drop of proparacaine (0.5%) was applied to the corneal surface prior to reservoir application. A buffer solution containing 0.1M NaHCO3 at either pH 8.5 or 7.4 was used. The pH of the sample and buffer mixture was titrated to the desired pH just prior to application to the eye using an appropriately concentrated HCl solution. Treatments were conducted over a 30-minute period at 25° C. with refreshing of the solution every five minutes. The control contralateral eye was treated identically with vehicle. Immediately after treatment, a central 6 mm corneal button was trephined from the treated region of each eye, was blotted on both sides using a paper towel to remove excess solution, and was analyzed using differential scanning calorimetry (DSC) [see below]. A minimum of two independent determinations were carried out for each condition described using a fresh cadaver head each time.
# as §1
# Due to the nature of the ex vivo cadaveric system used for corneal cross-linking, where each cadaver provided the treated eye and contralateral control, corneal samples were subjected to paired t-tests. […] All ΔTm values are reported in the form of mean value followed by standard error.
# [3] = from literature registry; cited from earlier work
# [4] = tested on: human skin fibroblasts (HSFs); conditions: past cell toxicity studies; cited from earlier work
# [5] = quantitative determination of formaldehyde release by 13C-NMR; assay type: physicochemical; conditions: pH 7.4 phosphate buffer, releaser 1.5 M; for Concentration of formaldehyde (M)a: free formaldehyde after 30 min at 37° C.; for Concentration of formaldehyde (M)b: free formaldehyde after 1 hour at 37° C.
# Procedure: In the study corresponding with Table 2, NMR samples were prepared in NMR tubes as follows: X mg of formaldehyde-releaser, 500 ul of phosphate buffer (pH 7.4), and 500 ul of a solution of acetonitrile in D2O as internal standard (0.2M). […]. For each spectrum, the area of the formaldehyde signal at 82.5 ppm was compared with that of the acetonitrile signal at 1.3 ppm (internal standard).
# • Concentration of formaldehyde-releasing agent (FAR), including nitroalcohols is 1.5 M. ^aConcentration of free formaldehyde (FA): after the sample was incubated in a water bath at 37° C. for 30 min. ^bConcentration of free formaldehyde (FA): after the sample was incubated in a water bath at 37° C. for 1 hour.
# mouse = conditions: in vivo; cited from earlier work
# [6] = tested on: human skin fibroblasts (HSFs); conditions: 24 hrs exposure, 48 hr recovery
# Procedure: Healthy human skin fibroblasts (HSFs) from ATCC (Manassas, Va.) were cultured in dermal cell basal media (ATCC) using a serum-free fibroblast growth kit provided by the company (ascorbic acid, EGF/TGF-β1, glutamine, hydrocortisone, insulin and FB growth supplements). Cells were grown in 5% CO2 and 95% ambient air at 37° C. until confluent. Once confluent, the cells were detached and seeded into 24 well plates at a density of 5×10^4 cells/well and were once again allowed to reach confluence. Next, cells were treated with FAR solutions over a range of concentrations (0.001 mM-5 mM) for 24 hrs. Following cross-linking exposure, all cell media, including FAR solution, was aspirated and each well was rinsed once with DPBS. Fresh media was then reintroduced and the cells were allowed to recover for 48 hrs. Subsequent to cell recovery, cell toxicity was assessed using a modified version of the trypan blue staining protocol. To that end, all culture media was aspirated and each well was rinsed with DPBS. Next, 0.4% trypan blue solution (Gibco, Grand Island, N.Y., USA) was added to each well for 3 minutes at 25° C. The staining solution was then aspirated and cells were washed twice with DPBS. Finally, extent of trypan blue staining and morphology of cells was visualized using an inverted microscope (Fisher Scientific Cat#12-560-45).
# Planar cell culture experiments using Human Skin Fibroblasts (HSFs) were conducted to determine the toxicity thresholds of the FARs. The toxicity threshold was taken to be the highest concentration in mM at which all cells were alive following a 24 hour exposure to the FAR and a 48 hour recovery period.
# rabbit = conditions: cited from earlier work
# [7] = pH 7.4, half max allowed concentration, epithelium intact
# [8] = pH 8.5, half max allowed concentration, epithelium intact
# [9] = pH 8.5, concentrations as low as half max allowed
compound,measurement,setting,value
"O=[N+]([O-])C(Br)(CO)CO [BP, 2-bromo-2-nitro-1,3-propanediol, reference compound]",ΔTm of scleral tissue,"porcine scleral tissue; 25 mM, pH 7.4, 30 mins",~0.5 °C
same,ΔTm of scleral tissue,"porcine scleral tissue; 25 mM, pH 8.5, 30 mins",~0.5 °C
same,Cross-linking time to gel formation,[1],42 h
same,Mutagenicity,Salmonella,Non- mutagenic§
same,LD50 Oral rat,rat; oral,180 mg/kg
"CC1(C)C(=O)N(CO)C(=O)N1CO [DMDM, 1,3-dimethylol-5,5-dimethyl-hydantoin]","cross-linking efficacy compared with nitroalcohol NP (250 mM, 60 minutes)",[2],significantly more effective
same,ΔTm (shift in denaturation temperature of corneal tissue),[2]; [7],2.13±0.273 °C
same,ΔTm (shift in denaturation temperature of corneal tissue),[2]; [8],2.04±0.225 °C
same,ΔTm of scleral tissue,"porcine scleral tissue; 25 mM, pH 7.4, 30 mins",1.693±0.033 °C
same,scleral cross-linking effect (significance of ΔTm),"porcine scleral tissue; pH 7.4, concentrations as low as half max allowed",statistically significant cross-linking effects
same,scleral cross-linking effect (significance of ΔTm),porcine scleral tissue; [9],statistically significant cross-linking effects
same,Octanol Partition Coefficient (Log P),[3],−1.078 ± 0.654
same,Mutagenicity,Salmonella,Non- mutagenic‡
O=CC(O)CO (stereo not shown) [Glyceraldehyde],toxic threshold for HSFs,[4],1 mM
"O=[N+]([O-])C(CO)(CO)CO [HNPD, 2-hydroxymethyl-2-nitro-1,3-propanediol, reference compound]",ΔTm of scleral tissue,"porcine scleral tissue; 25 mM, pH 7.4, 30 mins",negative ΔTm
same,ΔTm of scleral tissue,"porcine scleral tissue; 25 mM, pH 8.5, 30 mins",~0.5 °C
same,Concentration of formaldehyde (M)a,[5],0.041 M
same,Concentration of formaldehyde (M)b,[5],0.078 M
same,LD50 Oral mouse,mouse,"10,550 mg/kg"
same,Cross-linking time to gel formation,[1],29 h
same,Octanol Partition Coefficient (Log P),[3],−0.115 ± 0.770
same,Mutagenicity,Salmonella,Non- mutagenic∥
same,LD50 Oral rat,"rat; in vivo, po","1,917 mg/kg"
"O=C(NCNC(=O)NC1C(=O)NC(=O)N1CO)NC1C(=O)NC(=O)N1CO (stereo not shown) [IMU, N,N′-methylenebis[N-[3-(hydroxymethyl)-2,5-dioxo-4-imidazolidinyl]]-urea]",ΔTm (shift in denaturation temperature of corneal tissue),[2]; [8],−0.69±0.697 °C
same,negative shift in Tm of corneal tissue,"[2]; pH 7.4, half max allowed concentration, epithelium intact, not significant",~0.5 °C
same,ΔTm of scleral tissue,"porcine scleral tissue; 25 mM, pH 7.4, 30 mins",1.280±0.392 °C
same,ΔTm of scleral tissue,"porcine scleral tissue; 25 mM, pH 8.5, 30 mins",2.543±0.280 °C
same,cell state (Alive/Dead),[6]; 0.001 mM,Alive
same,cell state (Alive/Dead),[6]; 0.01 mM,Alive
same,cell state (Alive/Dead),[6]; 0.1 mM,Alive
same,cell state (Alive/Dead),[6]; 1 mM,Dead
same,cell state (Alive/Dead),[6]; 5 mM,Dead
same,Octanol Partition Coefficient (Log P),[3],−4.930 ± 0.959
same,LD50 Oral rat,rat; oral,"LD50 Oral- rat-11,300 mg/kg"
"CCC12COCN1COC2 [OCT, 5-Ethyl-3,7-dioxa-1-azabicyclo [3.3.0] octane]",ΔTm (shift in denaturation temperature of corneal tissue),[2]; [8],1.10±0.246 °C
same,ΔTm of scleral tissue,"porcine scleral tissue; 25 mM, pH 7.4, 30 mins",~0.5 °C
same,ΔTm of scleral tissue,"porcine scleral tissue; 25 mM, pH 8.5, 30 mins",~0.5 °C
same,LD50 Dermal rabbit,rabbit; dermal,"1,948 mg/kg"
same,LD50 Oral rat,rat; oral,"> 3,600 mg/kg"
"O=C([O-])CNCO.[Na+] [SMG, sodium hydroxymethylglycinate]","cross-linking efficacy compared with nitroalcohol NP (250 mM, 60 minutes)",[2],significantly more effective
same,ΔTm (shift in denaturation temperature of corneal tissue),[2]; [7],2.281±0.697 °C
same,ΔTm (shift in denaturation temperature of corneal tissue),[2]; [8],3.573±0.578 °C
same,ΔTm of scleral tissue,"porcine scleral tissue; 25 mM, pH 7.4, 30 mins",1.697±0.311 °C
same,ΔTm of scleral tissue,"porcine scleral tissue; 25 mM, pH 8.5, 30 mins",5.463±0.419 °C
same,ΔTm of scleral tissue,"porcine scleral tissue; pH 7.4, 39.06 mM (max allowed), 30 mins",0.007±0.222 °C
same,ΔTm of scleral tissue,"porcine scleral tissue; pH 8.5, 39.06 mM (max allowed), 30 mins",9.073±0.450 °C
same,scleral cross-linking effect (significance of ΔTm),porcine scleral tissue; [9],statistically significant cross-linking effects
same,cell state (Alive/Dead),[6]; 0.001 mM,Alive
same,cell state (Alive/Dead),[6]; 0.01 mM,Alive
same,cell state (Alive/Dead),[6]; 0.1 mM,Alive
same,cell state (Alive/Dead),[6]; 1 mM,Dead
same,cell state (Alive/Dead),[6]; 5 mM,Dead
same,Octanol Partition Coefficient (Log P),[3],−1.197
same,LD50 Dermal rabbit,"rabbit; in vivo, topical or ocular","rabbit->2,000 mg/kg"
same,Mutagenicity,Salmonella,Non- mutagenic†
same,LD50 Oral rat,"rat; in vivo, po","LD50 Oral- rat-2,100 mg/kg, LD50 Dermal-"
COC(=O)C1=CO[C@@H](O)[C@@H]2C(CO)=CC[C@H]12 [genipin],toxic threshold for HSFs,[4],on par with bronopol
O=CCCCC=O [glutaraldehyde],toxic threshold for HSFs,[4],on par with bronopol
"CC(CO)(CO)[N+](=O)[O-] [nitro-diol, 2-methyl-2-nitro-1,3-propanediol]",Concentration of formaldehyde (M)a,[5],0.011 M
same,Concentration of formaldehyde (M)b,[5],0.044 M
same,Cross-linking time to gel formation,[1],66 h
"CC(CO)[N+](=O)[O-] (stereo not shown) [nitro-monol, 2-nitro-1-propanol]",Concentration of formaldehyde (M)a,[5],0.018 M
same,Concentration of formaldehyde (M)b,[5],0.014 M
"N,N′-methylenebis[N-[3-(hydroxymethyl)-2,5-dioxo-4-imidazolidinyl]]-urea [IMU]",Cross-linking time to gel formation,[1],4 h
